Key:
[1] = system: bacteria, fungi and yeasts; assay: Antimicrobial activity overall; assay type: cell-based
From the text: Below, the antimicrobial efficacy of a composition according to the invention consisting of 50% by weight of isorbide caprylate 1 and 50% by weight of a 10% by weight strength solution of the monoethanolamine salt of 4-methyl-6-(2,4,4-trimethylpentyl)-1-hydroxy-2-pyridone (Octopirox®, 100% by weight strength, Clariant) in butyl polyglycol against bacteria, fungi and yeasts is examined (hereinbelow, the composition is referred to as “composition A”). For the tests with bacteria, composition A was diluted with butyl polyglycol and then, at 50° C., added to liquid CASO agar (casein-peptone agar) buffered to pH 7 (+/−0.2) in various concentrations (hereinbelow referred to as compositions B1, B2, etc.). […]
The minimum inhibitory concentrations for the pure substances isosorbide caprylate 1 and Octopirox® were determined analogously. […]
(§1) Analogously to the determination of the antimicrobial activity according to the above example B), the antimicrobial activity of a mixture comprising, firstly, 89.6% by weight of isosorbide dicaprylate and 9.4% by weight of isosorbide monocaprylate (remainder: 1% by weight) (hereinbelow referred to as “isosorbide dicaprylate”) and, secondly, pure isosorbide was determined in further test series.

[2] = system: bacteria, fungi and yeasts; details: general statement, no test described, cited from earlier work
Penicillium minioluteum = assay: Antimicrobial efficacy, MIC by agar dilution; assay type: cell-based; details: Sabouraud 4% dextrose agar pH 5.6
From the text: (§2) Below, the antimicrobial efficacy of a composition according to the invention consisting of 50% by weight of isorbide caprylate 1 and 50% by weight of a 10% by weight strength solution of the monoethanolamine salt of 4-methyl-6-(2,4,4-trimethylpentyl)-1-hydroxy-2-pyridone (Octopirox®, 100% by weight strength, Clariant) in butyl polyglycol against bacteria, fungi and yeasts is examined (hereinbelow, the composition is referred to as “composition A”). For the tests with bacteria, composition A was diluted with butyl polyglycol and then, at 50° C., added to liquid CASO agar (casein-peptone agar) buffered to pH 7 (+/−0.2) in various concentrations (hereinbelow referred to as compositions B1, B2, etc.). For the tests with fungi and yeasts, composition A was diluted with butyl polyglycol and then added to liquid Sabouraud 4% dextrose agar buffered to pH 5.6 (+/−0.2) in various concentrations (hereinbelow referred to as compositions PH1, PH2, etc.). The compositions B1, B2, etc. and PH1, PH2 etc. were each poured into Petri dishes and each inoculated with identical amounts of bacteria, fungi and yeasts. The minimum inhibitory concentration (MIC) is the concentration at which inhibition of the growth of the bacteria, fungi and yeasts in the compositions B1, B2, etc. and PH1, PH2, etc. occurs.
(§3) The minimum inhibitory concentrations for the pure substances isosorbide caprylate 1 and Octopirox® were determined analogously.
(§4) The values determined for the minimum inhibitory concentrations “MIC mixture”, stated in Table 1 below, are based on the concentrations of composition A.
(§5) The values determined for the minimum inhibitory concentrations “QA” and “QB”, stated in Table 1 below, have already been corrected for the dilution effect of the butyl polyglycol.
(§6) Kull et al., Applied Microbiology 1961, 9, 538 using the formula below: SE=Qa/QA+Qb/QB where • Qa is the minimum inhibitory concentration of isosorbide caprylate 1 in the mixture employed, • QA is the minimum inhibitory concentration of isosorbide caprylate 1, • Qb is the minimum inhibitory concentration of Octopirox® in the mixture employed and • QB is the minimum inhibitory concentration of Octopirox®.
(§7) The values for Qa and Qb are determined from the values for the mixtures (“MIC mixture”) by multiplying the minimum inhibitory concentrations determined for Qa with the factor 0.5 and for Qb with the factor 0.05, because of the proportions of the ingredients—50% by weight of isosorbide caprylate 1 and 50% by weight of a 10% by weight strength solution of Octopirox® in butyl polyglycol—in composition A according to the invention examined.
(§8) If an SE value>1 is obtained, an antagonistic effect is present.
as §1

Penicillium funicolosium = assay: Antimicrobial efficacy, MIC by agar dilution; assay type: cell-based; details: Sabouraud 4% dextrose agar pH 5.6
From the text: as §2, §3, §4, §5, §6, §7, §8, §1

Fusarium solani = assay: Antimicrobial efficacy, MIC by agar dilution; assay type: cell-based; details: Sabouraud 4% dextrose agar pH 5.6
From the text: as §2, §3, §4, §5, §6, §7, §8, §1

Citrobacter freundii = assay: Antimicrobial efficacy, MIC by agar dilution; assay type: cell-based; details: CASO agar pH 7
From the text: as §2, §3, §4, §5, §6, §7, §8, §1

Proteus vulgaris = assay: Antimicrobial efficacy, MIC by agar dilution; assay type: cell-based; details: CASO agar pH 7
From the text: as §2, §3, §4, §5, §6, §7, §8, §1

Escherichia coli = assay: Antimicrobial efficacy, MIC by agar dilution; assay type: cell-based; details: CASO agar pH 7
From the text: as §2, §3, §4, §5, §6, §7, §8, §1

Pseudomonas oleovorans = assay: Antimicrobial efficacy, MIC by agar dilution; assay type: cell-based; details: CASO agar pH 7
From the text: as §2, §3, §4, §5, §6, §7, §8, §1

Aspergillus terreus = assay: Antimicrobial efficacy, MIC by agar dilution; assay type: cell-based; details: Sabouraud 4% dextrose agar pH 5.6
From the text: as §2, §3, §4, §5, §6, §7, §8, §1

Pseudomonas aeruginosa = assay: Antimicrobial efficacy, MIC by agar dilution; assay type: cell-based; details: CASO agar pH 7
From the text: as §2, §3, §4, §5, §6, §7, §8, §1

Aspergillus brasiliensis = assay: Antimicrobial efficacy, MIC by agar dilution; assay type: cell-based; details: Sabouraud 4% dextrose agar pH 5.6
From the text: as §2, §3, §4, §5, §6, §7, §8, §1

Enterobacter aerogenes = assay: Antimicrobial efficacy, MIC by agar dilution; assay type: cell-based; details: CASO agar pH 7
From the text: as §2, §3, §4, §5, §6, §7, §8, §1

Klebsiella pneumoniae = assay: Antimicrobial efficacy, MIC by agar dilution; assay type: cell-based; details: CASO agar pH 7
From the text: as §2, §3, §4, §5, §6, §7, §8, §1

Candida albicans = assay: Antimicrobial efficacy, MIC by agar dilution; assay type: cell-based; details: Sabouraud 4% dextrose agar pH 5.6
From the text: as §2, §3, §4, §5, §6, §7, §8, §1

Staphylococcus aureus = assay: Antimicrobial efficacy, MIC by agar dilution; assay type: cell-based; details: CASO agar pH 7
From the text: as §2, §3, §4, §5, §6, §7, §8, §1

[3] = MIC of Octopirox alone, corrected for butyl polyglycol dilution
[4] = MIC of Octopirox in the mixture (MIC mixture x 0.05)

isosorbide monocaprylate
antimicrobial activity (concluded) ([1]; concluded from QA of isosorbide caprylate 1 and inactivity of its other constituents): significant antimicrobial activity

CCCCCCCC(=O)O [caprylic acid]
antimicrobial efficacy [2]: antimicrobially effective | antimicrobial activity at a pH of 6 or above ([2]; pH of 6 or above): no antimicrobial activity

Cc1cc(CC(C)CC(C)(C)C)n(O)c(=O)c1.NCCO (centres unmarked) [Octopirox®, monoethanolamine salt of 4-methyl-6-(2,4,4-trimethylpentyl)-1-hydroxy-2-pyridone]
OB, meas. (Penicillium minioluteum; [3]): 20 ppm | Ob, calc. (Penicillium minioluteum; [4]): 10 ppm | OB, meas. (Penicillium funicolosium; [3]): 20 ppm | Ob, calc. (Penicillium funicolosium; [4]): 10 ppm | OB, meas. (Fusarium solani; [3]): 20 ppm | Ob, calc. (Fusarium solani; [4]): 10 ppm | OB, meas. (Citrobacter freundii; [3]): 50 ppm | Ob, calc. (Citrobacter freundii; [4]): 25 ppm | OB, meas. (Proteus vulgaris; [3]): 25 ppm | Ob, calc. (Proteus vulgaris; [4]): 12.5 ppm | OB, meas. (Escherichia coli; [3]): 25 ppm | Ob, calc. (Escherichia coli; [4]): 25 ppm | OB, meas. (Pseudomonas oleovorans; [3]): 50 ppm | Ob, calc. (Pseudomonas oleovorans; [4]): 25 ppm | OB, meas. (Aspergillus terreus; [3]): 20 ppm | Ob, calc. (Aspergillus terreus; [4]): 10 ppm | OB, meas. (Pseudomonas aeruginosa; [3]): 25 ppm | Ob, calc. (Pseudomonas aeruginosa; [4]): 25 ppm | OB, meas. (Aspergillus brasiliensis; [3]): 20 ppm | Ob, calc. (Aspergillus brasiliensis; [4]): 10 ppm | OB, meas. (Enterobacter aerogenes; [3]): 100 ppm | Ob, calc. (Enterobacter aerogenes; [4]): 25 ppm | OB, meas. (Klebsiella pneumoniae; [3]): 50 ppm | Ob, calc. (Klebsiella pneumoniae; [4]): 25 ppm | OB, meas. (Candida albicans; [3]): 20 ppm | Ob, calc. (Candida albicans; [4]): 10 ppm | OB, meas. (Staphylococcus aureus; [3]): 25 ppm | Ob, calc. (Staphylococcus aureus; [4]): 25 ppm

O[C@@H]1CO[C@H]2[C@@H]1OC[C@@H]2O [isosorbide]
antimicrobial activity (summary of Table 2) ([1]; all bacteria, fungi and yeasts of Table 2): neither isosorbide nor isosorbide dicaprylate are antimicrobially active

Reference: patent publication US9295626B2, “Compositions comprising isosorbide monoester and N-hydroxypyridones” (Clariant International Ltd., priority 2011, dated 2016)
